From US4918099A, “Drug, preparation and use thereof” (priority 1985, dated 1990)
Where two headings read alike, the source gives them in different places.

Experiments:
[1] = test system: platelet aggregation in diabetic human plasma; test: Platelet aggregation in diabetic human plasma induced by ADP; assay type: cell-based; conditions: for activity at 1000 µM / inhibition at 1000 µM / activity at 100 µM / inhibition at 100 µM: Homo sapiens, Platelet; for activity at 1000 µM / activity at 100 µM: control 100
Method: (§1) The platelet aggregation was determined by a tubimetric method in a dual-channel aggregometer, assuming that a platelet-poor plasma represented 100% aggregation and that a platelet-rich plasma represented 0% aggregation. Each aggregometer tube was charged with 40 μl of platelet-rich plasma and 50 μl of test sample solution. The mixture was incubated at 37° C. for 2 min., whereupon 50 μl of ADP solution were added. Percent inhibition of the platelet aggregation caused by the test sample solution was calculated as follows: [formula]

[2] = test system: platelet aggregation in normal human plasma; test: Platelet aggregation in normal human plasma induced by ADP; assay type: cell-based; conditions: for T/min, Aggregation (first value) / Tmax, Aggregation (first value): control 75.1; for activity at 1000 µM / inhibition at 1000 µM / activity at 100 µM / inhibition at 100 µM: Homo sapiens, Platelet; for activity at 1000 µM / activity at 100 µM: control 100
Method: as §1

cyclo-oxygenase = conditions: conventional prostaglandin synthesis inhibitors; cited from earlier work
prostacyclin synthetase = conditions: conventional prostaglandin synthesis inhibitors; cited from earlier work
[3] = Comparison of synthetic substances with full extract; conditions: synthetically prepared substance
[4] = Planta Med. 31, 214-220 (1977); cited from earlier work
[5] = Rev. Latinoam. Microbiol. 1, 225-232 (1958); cited from earlier work
[6] = test system: lipid peroxidation in the mitochondria of rat liver; conditions: Arch. Pharm. Res. 7, 63-64, 1984; cited from earlier work
plasmalipid = conditions: spontaneously hypertensive rats; Fette-Seifen-Anstrichmittel 87, 74-76 (1985); cited from earlier work
[7] = Increase of the peripheral insulin action in diabetic mice; assay type: in vivo; conditions: 0.46 mU/g, control group (FIG. 5)
Method: Diabetic mice were divided into a control group and a test group. A dose of 100 mg of brazilin per kg body weight was daily administered to the animals of the test group; instead of brazilin, the same amount of saline solution was injected intraperitoneally to the animals of the control group.
After 30 test days, the body weight of the animals of the test group was higher and the blood sugar values of these animals were lower as compared to the diabetic animals of the control group.
On the 30th test day, the animals were made to fast for 5 h; thereupon, they were injected intravenously with 0.46 mU/g of NPH insulin. Then, the blood sugar values were measured at respective intervals of 5 min.

[8] = 10^-3 M, read-out: Tmax, Aggregation relative to control (second value)
[9] = 10^-3 M, read-out: Tmax, Inhibition
[10] = 10^-4 M, read-out: Tmax, Aggregation relative to control (second value)
[11] = 10^-4 M, read-out: Tmax, Inhibition
[12] = 10^-3 M, read-out: T/min, Aggregation relative to control (second value)
[13] = 10^-3 M, read-out: T/min, Inhibition
[14] = 10^-4 M, read-out: T/min, Aggregation relative to control (second value)
[15] = 10^-4 M, read-out: T/min, Inhibition

Compound | Tmax, Aggregation (first value) ([1]; 10^-3 M, control 78.7) | Tmax, Aggregation (first value) ([1]; 10^-4 M, control 78.7) | activity at 1000 µM [1, 8] | inhibition at 1000 µM [1, 9] | activity at 100 µM [1, 10] | inhibition at 100 µM [1, 11] | T/min, Aggregation (first value) ([2]; 10^-3 M) | Tmax, Aggregation (first value) ([2]; 10^-3 M) | T/min, Aggregation (first value) ([2]; 10^-4 M) | Tmax, Aggregation (first value) ([2]; 10^-4 M) | activity at 1000 µM [2, 12] | activity at 1000 µM [2, 8] | inhibition at 1000 µM [2, 13] | inhibition at 1000 µM [2, 9] | activity at 100 µM [2, 14] | activity at 100 µM [2, 10] | inhibition at 100 µM [2, 15] | inhibition at 100 µM [2, 11] | inhibition of cyclo-oxygenase (cyclo-oxygenase) | inhibition of prostacyclin synthetase (prostacyclin synthetase) | other results
CC(=O)Oc1ccccc1C(=O)O [acetylsalicylic acid, reference compound] | 70.0% | 73.8% | 88.9% | 11.1% | 93.6% | 6.4% | 11.9% | 37.5% | 17.4% | 60.2% | 15.8% | 49.9% | 84.6% | 50.1% | 23.2% | 80.1% | 76.8% | 19.9% | inhibit the activity of cyclo-oxygenase | prostacyclin synthetase is also undesirably inhibited | 
Oc1cc2c(cc1O)[C@@H]1c3ccc(O)c(O)c3OC[C@]1(O)C2 [hematoxylin] | 52.5% | 76.3% | 66.5% | 33.5% | 96.8% | 3.2% | 11.7% | 22.6% | 58.8% | 68.1% | 15.6% | 30.8% | 84.4% | 69.8% | 78.4% | 90.6% | 21.7% | 9.4% |  |  | T/min, Aggregation (first value) ([1]; 10^-3 M, control 78.7): 7.5%; activity at 1000 µM [1, 12]: 9.5%; inhibition at 1000 µM [1, 13]: 90.5%; inhibition of the platelet aggregation ([1]; conclusion on Tables 12 and 13): considerable inhibition of the platelet aggregation; effects compared with administration of major amounts of full extract [3]: substantially has the same effects; anti-inflammatory effect [4]: anti-inflammatory effect; antibacterial effect [5]: antibacterial effect; effect on lipid peroxidation in mitochondria of rat liver [6]: effect on the lipid peroxidation; plasmalipid-reducing effect (plasmalipid): plasmalipid-reducing effect
COc1ccc2c(c1)c(CC(=O)O)c(C)n2C(=O)c1ccc(Cl)cc1 [indomethacin] |  |  |  |  |  |  |  |  |  |  |  |  |  |  |  |  |  |  | inhibit the activity of cyclo-oxygenase | prostacyclin synthetase is also undesirably inhibited | 
NPH insulin [reference compound] |  |  |  |  |  |  |  |  |  |  |  |  |  |  |  |  |  |  |  |  | blood sugar after i.v. NPH insulin in diabetic control mice [7]: cannot significantly change the blood sugar value
